The values that follow come from patent publication US10583119B2, “Compounds, compositions and methods for making the same” (Signum Biosciences, Inc., priority 2008, dated 2020).

Test [1] concerns Ob/Ob Mice. In words: Non-fasted glucose levels in ob/ob mice. The test is classed as in vivo. From the text:
They are also hypometabolic and hypothermic. The obesity is characterized by an increase in both the number and the size of adipocytes. Although hyperphagia contributes to the obesity, homozygotes gain excess weight and deposit excess fat even when restricted to a diet sufficient for normal weight maintenance in lean mice. Mice heterozygous for the Lep^ob mutation appear like wild-type and are lean.
Forty-eight (48) B6.V-Lep^ob/J mice (00632, The Jackson Laboratory, JAX^6 mice), homozygous for the Lep^ob mutation and thirty six (36) controls B6.V-Lep^ob/J-lean, heterozygous for the Lep^ob mutation were used to study the effect of SIG1012 on non-fasted glucose levels. The mice were ear notched for identification and housed in individually and positively ventilated polycarbonate cages with HEPA filtered air at a density of 3 mice per cage. Bed-o-cob corn cob bedding was used and cages were changed every two weeks. The animal room was lighted entirely with artificial fluorescent lighting, with a controlled 12 h light/dark cycle (7 am to 7 pm light). The normal temperature and relative humidity ranges in the animal rooms were 22±4° C. and 50±15%, respectively. The animal rooms were set to have 15 air exchanges per hour. Filtered tap water, acidified to a pH of 2.8 to 3.2, and LabDiet AIN-76A was provided ad libitum.
Following acclimation, mice were assigned to groups A through G according to their body weight and genotype:
A Lean heterozygotes—B6.V-Lep^ob/J-lean Mice Fed Control Diet (AIN-76A);
B Lean heterozygotes—B6.V-Lep^ob/J-lean Mice Fed “Low” Compound I-63 (AIN-76A with 0.001% Compound I-63);
C Lean heterozygotes—B6.V-Lep^ob/J-lean Mice Fed “Medium” Compound I-63 (AIN-76A with 0.1% Compound I-63);
D Obese homozygotes—B6. V-Lep^ob/J Mice Fed Control Diet (AIN-76A);
E Obese homozygotes—B6N-Lep^ob/J Mice Fed “Low” Compound I-63 (AIN-76A with 0.001% Compound I-63); […]
Mice from Groups A through G were maintained on the respective diet for 14 days and blood glucose levels were measured weekly.

In test [2] the target is T1, protein phosphatase 2A specific methyltransferase (MTase) (Homo sapiens, UniProt Q9UIC8).
T1 construct: His; made in house
Kind of test: PP2A methylation in 96-well plate format (methyltransferase activity). The test is classed as biochemical. The settings on record: purified PP2A, MTase and [3H]-SAM; read-out: MT (IC50). As for the experimental part:
Purified PP2A, MTase and [^3H]-SAM, were incubated in reaction buffer at 37° C. At the end of the reaction, mixture was added onto the membranes of 96-well filter plate (Multiscreen™, Millipore). The membranes were then pre-wetted with 70% ethanol (50 μL/well) and then subsequently washed with water (2×200 μL/well). The reaction in each well was terminated and the proteins (5 μL-20 μL) were precipitated by adding 25% ice-cold TCA. The plate was kept on ice for 30 minutes to ensure completion of protein precipitation. Excess of the free SAM was then removed by washing with 5% cold TCA ([…]) and 70% cold ethanol (2×100 μL/well). Membranes were air-dried, radioactivity in each well was counted by TopCount^NXT scintillation counter (Packard) with 25 μL/well of Microsinct™ 20 (PerkinElmer).

In test [3] the test system is phosphorylated Tau. In words: Phosphorylated tau in vivo at four weeks (pS396 Western blot of brain). Further details: species or system mice. The settings on record: 0.1% in chow, phospho-Serine 396. As for the experimental part:
Swiss Webster mice (9-12 weeks old) were fed ad libitum, either standard rodent chow (Control), or rodent chow formulated with 0.1 g Compound I-63 per 100 g chow (0.1% Compound I-63) or 0.1 g Compound I-62 per 100 g chow (0.1% Compound I-62); water was changed weekly. Mice were housed at 23° C., on a 12 hour light and dark cycle, with 6 mice per cage. At 4 weeks, six mice from the Control, 0.1% Compound I-63 and 0.1% Compound I-62 groups were sacrificed by cervical dislocation, brains removed, snap-frozen in liquid nitrogen, and stored at −80° C. Brains were homogenized in 350 pi of buffer containing 20 mM MOPS-Na, pH 7.2, 1 mM EDTA/DTT, 0.5 mg/L of aprotinin, leupeptin and pepstatin, 100 nM okadaic acid, and clarified by centrifugation (14000 rpm, 10 min, 4° C.). Supernatant protein concentrations were measured by the Bradford method, 4 volumes of the supernatant and 1 volume of 5×SDS sample buffer were mixed and boiled for 2 minutes. Boiled homogenate ([…]) were loaded on 12% polyacrylamide gels, and transferred to nitrocellulose membranes. […] Protein bands were detected with the ECL Plus reagent (GE Healthcare) and blots scanned on a Molecular Dynamics Storm Imager. […]
On the technique in general: A western blot detects proteins with antibodies after separation by electrophoresis.

Structures are written as SMILES.

T1 sequence (Q9UIC8 whole entry): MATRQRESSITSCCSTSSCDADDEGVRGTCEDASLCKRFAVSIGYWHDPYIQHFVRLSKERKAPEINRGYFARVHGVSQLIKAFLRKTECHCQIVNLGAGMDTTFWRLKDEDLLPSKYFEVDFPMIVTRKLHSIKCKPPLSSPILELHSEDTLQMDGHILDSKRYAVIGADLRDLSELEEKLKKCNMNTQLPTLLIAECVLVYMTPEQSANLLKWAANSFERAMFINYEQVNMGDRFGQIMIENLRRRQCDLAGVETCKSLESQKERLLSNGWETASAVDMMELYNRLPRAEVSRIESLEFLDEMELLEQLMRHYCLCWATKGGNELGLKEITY

Consider `CCCCCCCCCCCCCCCCCCCC(=O)NCCc1c[nH]c2ccc(O)cc12` [Compound I-63, N-(2-(5-hydroxy-1H-indol-3-yl)ethyl)icosanamide], for which the “effect on non-fasted blood glucose levels” value in test [1] (heterozygous lean mice control) is “No effect”. In addition, the “reduction in non-fasted blood glucose levels” value in test [1] (homozygous obese mice, compound in diet for 14 days) is listed as 26-30%. Moreover, the IC50 (in general, the point on the concentration scale where inhibition reaches its midpoint) in test [2] fell in the range of 10 to 100 µM. For the same compound, the “lowering of phosphorylated tau levels in the brain compared to control” value in test [3] worked out at 40%.
